Results on three compounds are retold here after ChEMBL document CHEMBL5316369, “From the Spectroscopic Reassessment of Authentic Alkaloid Samples to the Molecular Networking-Guided Discovery of Criophylline-Related Analogues from Callichilia inaequalis” (J Nat Prod, 2023).

The experiment deals with Plasmodium falciparum. The experiment in a line: Antiparasitic activity against chloroquine-resistant Plasmodium falciparum FcB1 assessed as inhibition of parasite growth incubated for 24 hrs by liquid scintillation spectrometer analysis. The experiment is classed as functional, organism-based. The conditions noted are these: FcB1, 24 h.
The IC50 is the concentration that inhibits the measured activity by half. As for `CC[C@@]12CC[C@@]34Nc5ccc([C@@H]6[C@H]7O[C@H]7[C@]7(CC)CC(C(=O)OC)=C8Nc9ccccc9[C@@]89CCN6[C@@H]79)cc5[C@@H]3CCN(C[C@H](OS(=O)(=O)O)[C@H]1O)[C@@H]24`, the IC50 worked out at 14.3 µM.

For `CC[C@@]12CC[C@@]34Nc5ccc([C@@H]6[C@H]7O[C@H]7[C@]7(CC)CC(C(=O)OC)=C8Nc9ccccc9[C@@]89CCN6[C@@H]79)cc5[C@@H]3CCN(C[C@H]3O[C@H]31)[C@@H]24`, the IC50 stood at 54.5 µM.

Consider `CC[C@@]12CC[C@@]34Nc5ccc([C@@H]6[C@H]7O[C@H]7[C@]7(CC)CC(C(=O)OC)=C8Nc9ccccc9[C@@]89CCN6[C@@H]79)cc5[C@@H]3CCN(C[C@H](O)[C@H]1O)[C@@H]24`, for which the IC50 came to 2.9 µM.
